# Data as given in patent US4420639A, “Aromatic compounds” (Beecham Group Limited, priority 1973, dated 1983).
# Experiments:
# [1] = system: gastric erosions or ulceration; assay: Ulcerogenic Activity in Rats; type: in vivo, rat; settings: 250 mg/kg p.o. or 500 mg/kg p.o.
# Description: m. Ulcerogenic Activity in Rats.
# [2] = system: pyresis induced by Shigella endotoxin; assay: Anti-pyretic Effect in Rabbits; type: in vivo, rabbit; settings: doses down to 100 mg/kg p.o.; intravenous Shigella endotoxin
# Description: g. Anti-pyretic Effect in Rabbits.
# [3] = system: Cotton Pellet Induced Granuloma; assay: Cotton Pellet Induced Granuloma in Rats; type: in vivo, rat; settings: 50 mg/kg p.o. dosed from day 0 to 5 days
# Procedure: c. Cotton Pellet Induced Granuloma in Rats. Consistent activity (reducing induced granuloma by more than 30%) has been observed at 50 mg/kg p.o. dosed from day 0 to 5 days.
# [4] = system: ovariectomised rats, uterine weight; assay: Oestrogenic Test in Rats (uterine weight); type: in vivo, rat; settings: 200 mg/kg p.o. and 600 mg/kg p.o. for 4 days
# Description: i. Oestrogenic Test in Rats.
# [5] = system: cultured mouse peritoneal macrophages; assay: Macrophage Plasmongen Activator Release test; type: cell-based; settings: 1 mg/ml
# [6] = system: Adrenal/Pitutary Axis; assay: Interactions with the Adrenal/Pitutary Axis; type: in vivo; settings: five days at 140 mg/kg p.o./day; response to ACTH or ether stress
# Description: h. Interactions with the Adrenal/Pitutary Axis.
# [7] = system: Carrageenin Induced Oedema; assay: Carrageenin Induced Oedema in Rats; type: in vivo, rat; settings: 5, 10, 35 and 70 mg/kg p.o.
# Description: a. Carrageenin Induced Oedema in Rats.
# [8] = system: oestrogenicity; assay: Oestrogenic effects (general statement); type: in vivo; settings: at the therapeutic dose
# [9] = system: pyloric ligated rat; assay: Gastric Damage in Pyloric Ligated Rats; type: in vivo; settings: up to 200 mg/kg intra-duadenally
# Description: l. Gastric Damage in Pyloric Ligated Rats.
# [10] = system: Adjuvant arthritis; assay: Adjurant Arthritis in Rats; type: in vivo, rat; settings: daily administration of 60 mg/kg p.o.
# Procedure: d. Adjurant Arthritis in Rats.
# Adjuvant arthritis is reduced in rats by the daily administration of doses of 60 mg/kg p.o.
# [11] = system: uterus / endometrium (Clauberg test); assay: Gestagenic Activity in Rabbits (Clauberg test); type: in vivo, rabbit; settings: 200 mg/kg p.o. for 4 days
# Description: k. Gestagenic Activity in Rabbits.
# [12] = system: stomach / gastro-intestinal tract; assay: Gastro-intestinal irritancy at or near the therapeutic dose (general statement); type: in vivo
smiles,measurement,setting,value
COc1ccc2cc(CCC(C)=O)ccc2c1 [4-(6'-methoxy-2'-naphthyl)butan-2-one],gastric erosions at longer contact times,[1]; longer contact times than 4 hours,did lead in some cases to some degree of erosions
same,gastric erosions or ulceration,"[1]; starved 18 hours, examined 1 or 4 hours after dosing",did not give rise to gastric erosions or ulceration
same,reduction of pyresis,[2],reduced pyresis
same,"changes in body weight or in the weight of the spleen, thymus, kidney, liver or adrenal glands",[3],not accompanied by marked changes
same,reduction of induced granuloma,[3],more than 30%
same,increase in uterine weight,[4],did not result in any increase in uterine weight
same,inhibition of the release of plasmogen activator,[5],slight inhibition
same,interference with release of corticosteroids from the adrenal gland,[6],does not interfere with release of corticosteroids
same,reduction in induced oedema volume,[7],significant reduction in induced oedema volume
same,oestrogenic effects,[8],not causing either oestrogenic effects
same,overt gastric damage,[9],nor did overt gastric damage result
same,systemically mediated effect on the volume of gastric secretion,[9],have not been found to have a systemically mediated effect on the volume of gastric secretion
same,reduction of adjuvant arthritis,[10],reduced
same,uterine hypertrophy or progestational changes in the endometrium,[11],did not result in uterine hypertrophy or progestational changes in the endometrium
same,irritation of the stomach / gastric-irritant effects,[12],not causing either oestrogenic effects or pronounced gastric-irritant effects
